In ChEMBL document CHEMBL5543109, “Novel β-Hairpin Antimicrobial Peptide Containing the β-Turn Sequence of -NG- and the Tryptophan Zippers Facilitate Self-Assembly into Nanofibers, Exhibiting Excellent Antimicrobial Performance” (J Med Chem, 2024):
Converted amounts (≈) assume the structure as drawn. The source made the active and inactive calls. The rule behind the calls is not given here.

Tests used:
Staphylococcus aureus [1] = test: Antibacterial activity against Staphylococcus aureus S794 incubated for 18 hrs by broth microdilution method; assay type: functional
Pseudomonas aeruginosa [2] = test: Antibacterial activity against Pseudomonas aeruginosa ATCC 27853 incubated for 18 hrs by broth microdilution method; assay type: functional
Escherichia coli [3] = test: Antibacterial activity against kanamycin resistant Escherichia coli incubated for 18 hrs by broth microdilution method; assay type: functional
Staphylococcus aureus [4] = test: Antibacterial activity against Staphylococcus aureus incubated for 18 hrs by broth microdilution method; assay type: functional
Staphylococcus aureus [5] = test: Antibacterial activity against Staphylococcus aureus ATCC 25923 incubated for 18 hrs by broth microdilution method; assay type: functional
Staphylococcus aureus [6] = test: Antibacterial activity against methicillin resistant Staphylococcus aureus incubated for 18 hrs by broth microdilution method; assay type: functional
Bacillus subtilis [7] = test: Antibacterial activity against Bacillus subtilis ATCC 23857 incubated for 18 hrs by broth microdilution method; assay type: functional
Staphylococcus aureus [8] = test: Antibacterial activity against Staphylococcus aureus infected in BALB/c mouse systemic infection model assessed as reduction in spleen bacterial load at 10 mg/kg, ip measured after 8 hrs; assay type: functional, organism-based
Staphylococcus aureus [9] = test: Antibacterial activity against Staphylococcus aureus infected in BALB/c mouse systemic infection model assessed as reduction in liver bacterial load at 10 mg/kg, ip measured after 8 hrs; assay type: functional, organism-based
Staphylococcus aureus [10] = test: Antibacterial activity against kanamycin resistant Staphylococcus aureus incubated for 18 hrs by broth microdilution method; assay type: functional
Staphylococcus aureus [11] = test: Antibacterial activity against methicillin resistant Staphylococcus aureus 75 incubated for 18 hrs by broth microdilution method; assay type: functional
Staphylococcus aureus [12] = test: Antibacterial activity against Staphylococcus aureus infected in BALB/c mouse systemic infection model assessed as reduction in kidney bacterial load at 10 mg/kg, ip measured after 8 hrs; assay type: functional, organism-based
Staphylococcus aureus [13] = test: Antibacterial activity against Staphylococcus aureus S125 incubated for 18 hrs by broth microdilution method; assay type: functional
Escherichia coli [14] = test: Antibacterial activity against rifampicin resistant Escherichia coli incubated for 18 hrs by broth microdilution method; assay type: functional
Staphylococcus aureus [15] = test: Antibacterial activity against methicillin resistant Staphylococcus aureus 113 incubated for 18 hrs by broth microdilution method; assay type: functional
Escherichia coli [16] = test: Antibacterial activity against Escherichia coli ATCC 25922 incubated for 18 hrs by broth microdilution method; assay type: functional
Staphylococcus aureus [17] = test: Antibacterial activity against rifampicin resistant Staphylococcus aureus incubated for 18 hrs by broth microdilution method; assay type: functional
Klebsiella pneumoniae [18] = test: Antibacterial activity against Klebsiella pneumoniae ATCC 700603 incubated for 18 hrs by broth microdilution method; assay type: functional
Pseudomonas aeruginosa [19] = test: Drug resistance against Pseudomonas aeruginosa assessed as fold increase in MIC after 40 consecutive days of passages by sequential passaging method; assay type: functional
Escherichia coli [20] = test: Antibacterial activity against Escherichia coli incubated for 18 hrs by broth microdilution method; assay type: functional
Staphylococcus aureus [21] = test: Antibacterial activity against Staphylococcus aureus infected in BALB/c mouse systemic infection model assessed as reduction in lung bacterial load at 10 mg/kg, ip measured after 8 hrs; assay type: functional, organism-based
[22] = test system: Staphylococcus epidermidis; test: Antibacterial activity against Staphylococcus epidermidis ATCC 12228 incubated for 18 hrs by broth microdilution method; assay type: functional
Cell membrane [23] = test: Induction of cell membrane disruption in Escherichia coli assessed as PI uptake at 4 times MIC incubated for 2 hrs by PI staining based flow cytometry analysis (reference value: 11.9%); assay type: cell membranes
Pseudomonas aeruginosa [24] = test: Induction of morphological change in Pseudomonas aeruginosa assessed as bacterial lysis at 2 times MIC incubated for 30 mins by SEM analysis; assay type: functional, organism-based
Escherichia coli [25] = test: Bactericidal activity against Escherichia coli ATCC 25922 incubated for 18 hrs by broth microdilution method; assay type: functional
Cell membrane [26] = test: Induction of cell membrane disruption in Escherichia coli assessed as PI uptake at 2 to 4 times MIC incubated for 2 hrs by PI staining based confocal laser scanning microscopy; assay type: cell membranes
Cell membrane [27] = test: Induction of cell membrane disruption in Staphylococcus aureus assessed as PI uptake at 2 times MIC incubated for 2 hrs by PI staining based flow cytometry analysis (reference value: 15.9%); assay type: cell membranes
Klebsiella pneumoniae [28] = test: Bactericidal activity against Klebsiella pneumoniae ATCC 700603 incubated for 18 hrs by broth microdilution method; assay type: functional
Pseudomonas aeruginosa [29] = test: Induction of morphological change in Pseudomonas aeruginosa assessed as bacterial collapse at 2 times MIC incubated for 30 mins by SEM analysis; assay type: functional, organism-based
Escherichia coli [30] = test: Antibacterial activity against Escherichia coli at 2 times MIC preincubated with 256 ug/ml LPS for 1 hr followed by bacterial addition and measured after 5 hrs; assay type: functional, organism-based; conditions: time 6.0 hrs
Cell membrane [31] = test: Induction of cell membrane disruption in Staphylococcus aureus assessed as PI uptake at 4 times MIC incubated for 2 hrs by PI staining based flow cytometry analysis (reference value: 15.9%); assay type: cell membranes
[32] = test system: Staphylococcus epidermidis; test: Bactericidal activity against Staphylococcus epidermidis ATCC 12228 incubated for 18 hrs by broth microdilution method; assay type: functional
Staphylococcus aureus [33] = test: Induction of morphological change in Staphylococcus aureus assessed as bacterial lysis at 2 times MIC incubated for 30 mins by SEM analysis; assay type: functional, organism-based
Cell membrane [34] = test: Induction of cell membrane disruption in Staphylococcus aureus assessed as PI uptake at 2 to 4 times MIC incubated for 2 hrs by PI staining based confocal laser scanning microscopy; assay type: cell membranes
Staphylococcus aureus [35] = test: Induction of morphological distortion in Staphylococcus aureus assessed as bacterial collapse at 2 times MIC incubated for 30 mins by SEM analysis; assay type: functional, organism-based
Staphylococcus aureus [36] = test: Bactericidal activity against Staphylococcus aureus ATCC 25923 incubated for 18 hrs by broth microdilution method; assay type: functional
Cell membrane [37] = test: Induction of cell membrane disruption in Escherichia coli assessed as PI uptake at 2 times MIC incubated for 2 hrs by PI staining based flow cytometry analysis (reference value: 11.9%); assay type: cell membranes
Pseudomonas aeruginosa [38] = test: Induction of morphological distortion in Pseudomonas aeruginosa assessed as bacterial collapse at 2 times MIC incubated for 30 mins by SEM analysis; assay type: functional, organism-based
Staphylococcus aureus [39] = test: Induction of morphological change in Staphylococcus aureus assessed as bacterial collapse at 2 times MIC incubated for 30 mins by SEM analysis; assay type: functional, organism-based
Bacillus subtilis [40] = test: Bactericidal activity against Bacillus subtilis ATCC 23857 incubated for 18 hrs by broth microdilution method; assay type: functional
Pseudomonas aeruginosa [41] = test: Bactericidal activity against Pseudomonas aeruginosa ATCC 27853 incubated for 18 hrs by broth microdilution method; assay type: functional
[42] = Acute toxicity in mouse assessed as tissue hemorrhage at 25.8 mg/kg, ip by H and E staining based assay; assay type: organism-based; conditions: in vivo
[43] = Acute toxicity in mouse assessed as renal cell necrosis at 25.8 mg/kg, ip by H and E staining based assay; assay type: organism-based; conditions: in vivo
[44] = Acute toxicity in mouse assessed as mortality rate at 21 mg/kg, ip by karber method; assay type: organism-based; conditions: in vivo
[45] = Acute toxicity in mouse assessed as alveolar cavity wrinkling at 25.8 mg/kg, ip by H and E staining based assay; assay type: organism-based; conditions: in vivo
[46] = Acute toxicity in mouse assessed as mortality rate at 25 mg/kg, ip by karber method; assay type: organism-based; conditions: in vivo
[47] = Acute toxicity in mouse assessed as mortality rate at 30 mg/kg, ip by karber method; assay type: organism-based; conditions: in vivo
Erythrocyte = test: Hemolytic activity in mouse erythrocytes assessed as concentration required to cause 10% hemolysis incubated for 1 hr; assay type: toxicity, cell-based
[48] = Acute toxicity in mouse assessed as hepatocyte necrosis at 25.8 mg/kg, ip by H and E staining based assay; assay type: organism-based; conditions: hepatocytes
[49] = Acute toxicity in mouse assessed as lung cell necrosis at 25.8 mg/kg, ip by H and E staining based assay; assay type: organism-based; conditions: in vivo
[50] = Acute toxicity in ip dosed mouse by karber method; assay type: organism-based; conditions: in vivo, ip
[51] = Acute toxicity in mouse assessed as cellular atrophy at 25.8 mg/kg, ip by H and E staining based assay; assay type: organism-based; conditions: in vivo
[52] = Acute toxicity in mouse assessed as inflammatory cell infiltration at 25.8 mg/kg, ip by H and E staining based assay; assay type: organism-based; conditions: in vivo

## O=C(O)c1cn(C2CC2)c2cc(N3CCNCC3)c(F)cc2c1=O [CIPROFLOXACIN]
Staphylococcus aureus [1]
  MIC: 256 µM (≈ 84.8 µg/mL)
Pseudomonas aeruginosa [2]
  MIC: 2 µM (≈ 0.663 µg/mL)
Escherichia coli [3]
  MIC: 2 µM (≈ 0.663 µg/mL)
Staphylococcus aureus [4]
  MIC: 8 µM (≈ 2.65 µg/mL)
Staphylococcus aureus [5]
  MIC: 8 µM (≈ 2.65 µg/mL)
Staphylococcus aureus [6]
  MIC: 256 µM (≈ 84.8 µg/mL)
Bacillus subtilis [7]
  MIC: 2 µM (≈ 0.663 µg/mL)
Staphylococcus aureus [8]
  Activity: inactive
Staphylococcus aureus [9]
  Activity: Active
Staphylococcus aureus [10]
  MIC: 4 µM (≈ 1.33 µg/mL)
Staphylococcus aureus [11]
  MIC: 256 µM (≈ 84.8 µg/mL)
Staphylococcus aureus [12]
  Activity: Active
Staphylococcus aureus [13]
  MIC: 8 µM (≈ 2.65 µg/mL)
Escherichia coli [14]
  MIC: 0.5 µM (≈ 0.166 µg/mL)
Staphylococcus aureus [15]
  MIC: 16 µM (≈ 5.3 µg/mL)
Escherichia coli [16]
  MIC: < 1 µM
Staphylococcus aureus [17]
  MIC: 0.5 µM (≈ 0.166 µg/mL)
Klebsiella pneumoniae [18]
  MIC: 8 µM (≈ 2.65 µg/mL)
Pseudomonas aeruginosa [19]; time 18 hrs
  fold change (FC): 128
Escherichia coli [20]
  MIC: 0.5 µM (≈ 0.166 µg/mL)
Staphylococcus aureus [21]
  Activity: Active
[22]
  MIC: 8 µM (≈ 2.65 µg/mL)

## POLYMYXIN B [listing 1 of 2 here]
Staphylococcus aureus [1]
  MIC: 8 µM
Cell membrane [23]
  Activity: 45.4%
Pseudomonas aeruginosa [24]
  Activity: Active
Pseudomonas aeruginosa [2]
  MIC: 1 µM
Escherichia coli [3]
  MIC: 16 µM
Escherichia coli [25]
  MBC: 2 µM
Staphylococcus aureus [4]
  MIC: 8 µM
Cell membrane [26]
  Activity: inactive
Cell membrane [27]
  Activity: 47.5%
Staphylococcus aureus [5]
  MIC: 8 µM
Klebsiella pneumoniae [28]
  MBC: 2 µM
Staphylococcus aureus [6]
  MIC: 16 µM
Bacillus subtilis [7]
  MIC: 4 µM
Pseudomonas aeruginosa [29]
  Activity: Active
Escherichia coli [30]
  Activity: inactive
Staphylococcus aureus [10]
  MIC: 8 µM
Cell membrane [31]
  Activity: 38%
[32]
  MBC: 16 µM
Staphylococcus aureus [33]
  Activity: Active
Staphylococcus aureus [11]
  MIC: 16 µM
Cell membrane [34]
  Activity: inactive
Staphylococcus aureus [13]
  MIC: 8 µM
Escherichia coli [14]
  MIC: 2 µM
Staphylococcus aureus [35]
  Activity: Active
Staphylococcus aureus [15]
  MIC: 8 µM
Escherichia coli [16]
  MIC: 2 µM
Staphylococcus aureus [17]
  MIC: 2 µM
Klebsiella pneumoniae [18]
  MIC: 2 µM
Staphylococcus aureus [36]
  MBC: 32 µM
Pseudomonas aeruginosa [19]; time 18.0 hrs
  fold change (FC): 8
Cell membrane [37]
  Activity: 42.6%
Pseudomonas aeruginosa [38]
  Activity: Active
Staphylococcus aureus [39]
  Activity: Active
Bacillus subtilis [40]
  MBC: 8 µM
Escherichia coli [20]
  MIC: 2 µM
Pseudomonas aeruginosa [41]
  MBC: 1 µM
[22]
  MIC: 8 µM

## POLYMYXIN B [listing 2 of 2 here]
[42]
  Activity: Toxic
[43]
  Activity: Toxic
[44]
  Activity: 0%
[45]
  Activity: Toxic
[46]
  Activity: 60%
[47]
  Activity: 80%
Erythrocyte
  MHC: > 512 µM
[48]
  Activity: Toxic
[49]
  Activity: Toxic
[50]
  LD50: 25.68 mg/kg
[51]
  Activity: Toxic
[52]
  Activity: Toxic
